The results in this text go back to patent US5162316A, “Pyrimido[4,5-d]pyrimidine derivatives for use as bronchodilators” (Smith Kline & French Laboratories Limited, priority 1988, dated 1992).

For orientation: Km means the concentration of substrate that gives half-maximal velocity.

In series [1] the test system is [H][C@@]12COP(=O)(O)O[C@@]1([H])[C@@H](O)[C@H](n1cnc3c(=O)[nH]c(N)nc31)O2. The series can be described thus: purified protein, by the assay type. To be noted: other: substrate of the isolated PDE activity.
Series [2] relates to U46619-induced bronchoconstriction. Kind of series: Bronchodilatation in vivo: inhibition of U46619-induced bronchoconstriction in anaesthetised guinea-pigs (Konzett-Rossler). More on the design: species or system guinea-pig (Dunkin Hartley, male). To be noted: for ED50: Cavia porcellus, iv, i.v. bolus, anaesthetised guinea-pig, range for the group of listed Examples, read-out: BD50 (dose of compound required to reduce the U46619-induced bronchoconstriction by 50%). The procedure:
Male guinea-pigs of the Dunkin Hartley strain (500-600g) were anaesthetised with Sagatal (pentobarbital sodium) (60 mg/kg). Airway resistance was measured using a modification of the classical Konzett-Rossler technique (J. Pharm. Methods, 13, 309- 315, 1985). […] The compound under test was administered by i.v. bolus injection, and the subsequent peak inhibition of bronchoconstriction recorded.
The dose of compound required to reduce the U46619-induced bronchoconstriction by 50% is given as the BD50. The compounds of Examples 1, 7, 8, 12, 13, 14, 18, 20, 21, 22 and 24 had BD50 values in the range 0.48-3.85 μmol/kg.

The subject of series [3] is ovalbumen-induced bronchoconstrictor response. Kind of series: Anti-allergic activity: ovalbumen-induced bronchoconstriction in sensitised guinea-pigs. Type of series: in vivo, guinea-pig (Duncan Hartley, male). To be noted: ovalbumen 1 mg/kg i.v., n=6. On the procedure:
Male Duncan Hartley guinea-pigs (250-300 g) were sensitised to ovalbumen by i.p. injection of 2 ml of 50mg.ml^-1 i.p. and 0.2 ml s.c. Three weeks later they were anaesthetised with 60mg.kg^-1 sodium pentabarbitone. The trachea was cannulated and the animal respired at a rate of 40 breaths per minute and at an initial tracheal inflation pressure of 16 mmHg. Tracheal inflation pressure was measured by a transducer connected to a side arm of the respiration circuit. The carotid artery was cannulated for the measurement of blood pressure and the signal was used to trigger an instantaneous rate meter. A jugular vein was cannulated for the administration of drug and allergen. After surgery the animals were allowed to stabilise and the drug was administered i.v. as a bolus. Following this, ovalbumen 1 mg.kg^-1 was injected i.v. as the antigen challenge either 2, 15 or 30 minutes following drug treatment and the peak bronchoconstrictor response recorded. For the control group ovalbumen only was given. One ovalbumen challenge per guinea-pig was used and n=6 for each time point. The percentage increase in tracheal inflation pressure was calculated. The following results indicating an anti-allergic activity were obtained.

For series [4], the target named is T1, calmodulin insensitive cyclic GMP phosphodiesterase (Sus scrofa, UniProt A0A287B475).
T1 construct: kept on ice until the pulmonary arteries or aortas could be dissected and excess fat removed; from tissue; host or cells: pig pulmonary arteries or aortas; soluble fraction purified over DEAE-Sepharose, calmodulin-agarose and cibacron blue-agarose
Kind of series: Kinetic properties of the isolated PDE activity. Type of series: biochemical, pig. To be noted: at 1 μM substrate. On the procedure:
Eight pig hearts/lungs were collected from the abattoir and kept on ice until the pulmonary arteries or aortas could be dissected and excess fat removed. 120 g of tissue was dissected. […] On the day of homogenisation, tissue was cooled with liquid nitrogen and broken into small pieces by striking with a hammer. […] Phenylmethanesulphonylfluoride (PMSF) was added to a final concentration of 50 μM just prior to homogenisation. The homogenate was then centrifuged for 20 minutes at 30,000 g. Supernatant was filtered firstly through glass wool and then a 0.45 μm filter. […] The column was washed with 150 mls of homogenisation buffer and PDE activities eluted with 150 ml of homogenisation buffer containing 100 mM sodium acetate.
Fractions 2 and 3 were pooled and BIS-TRIS, MgCl2, CaCl2 added to final concentrations of 50 mM, 7 mM and 5 mM respectively. PMSF, leupeptin, antipain and pepstatin A were also added at the concentrations described above for these components. The pH of this pooled sample was corrected to 6.9.
The first column in the tandem was a 5 ml calmodulin-agarose column (Sigma) and the second a 1.5 ml cibacron blue 3GA-agarose column (Sigma). Both columns were pre-equilibrated with 50 mM BIS-TRIS, 5 mM MgCl2, 5 mM CaCl2, 5 mM benzamidine, 2 mM dithiothreitol pH 6.9. Following application of the sample the columns were washed with 20 ml of equilibration buffer. […]

A further series concerns hindquarter blood flow. The series can be described thus: Vasodilatation in vivo: hindquarter blood flow in anaesthetised rats. Further details: species or system rat (Wistar, male). To be noted: bolus i.v., 50 μmol/kg, rat. On the procedure: Male Wistar rats (300 g) were anaesthetised with a sodium 5-ethyl-5-(1methylpropyl)-2-thiobarbiturate/sodium pentobarbitone mixture i.p. (62.5 and 22.5 mg/kg respectively). The trachea was cannulated and the rats breathed spontaneously air enriched with O2 (5 ml/min). Blood pressure was recorded from a carotid artery and a jugular vein was cannulated for the administration of compounds. The temperature of the animal was maintained at 37° C. by the use of an electric blanket. […] The perfusion circuit was primed with 5% bovine serum albumin dissolved in 0.9% sodium chloride solution, pH adjusted to 7.4. Initially the pump rate was set between 10 and 15 ml/min to match the hind quarter perfusion pressure to that of the systemic circulation. Once set, the pressure remained unaltered for the rest of the experiment. A change in the speed of the pump (equivalent to hindquarter blood flow) was used to assess the changes in hindquarter vascular resistance.

As for “calmodulin insensitive cyclic GMP phosphodiesterase (Sus scrofa)”, the Michaelis-Menten constant (Km) in series [1] is 1.3 µM.

For `CCCOc1ccccc1-c1nc2nc(NCCCO)ncc2c(=O)[nH]1` [Example 21, 7-(3-Hydroxypropylamino)-4-oxo-2-(2-propoxyphenyl)-3,4-dihydropyrimido[4.5 d]pyrimidine], in series [2], the ED50 fell in the range of 0.48 to 3.85 µmol/kg.

As for `CCCOc1ccccc1-c1nc2nc(NCC(C)O)ncc2c(=O)[nH]1` (centres unmarked) [Example 24, 7-(2-Hydroxypropylamino)-4-oxo-2-(2-propoxyphenyl)-3,4-dihydropyrimido[4,5-d]pyrimidine], in series [3] (dose 6.5 μmol/kg i.v.), the “% Inhibition of Control Bronchoconstrictor Response 30 min after drug administration” value (“% Inhibition” below) is listed as 24%. Moreover, the ED50 in series [2] was 0.48 to 3.85 µmol/kg.

Take `CCCNc1ncc2c(=O)[nH]c(-c3ccccc3OCCC)nc2n1` [Example 20, 7-Propylamino-4-oxo-2-(2-propoxyphenyl)-3,4-dihydropyrimido[4,5-d]pyrimidine]: in series [2], the ED50 lay in the range of 0.48 to 3.85 µmol/kg.

Turning to `Nc1nc2c(ncn2[C@@H]2O[C@@H]3COP(=O)(O)O[C@H]3[C@H]2O)c(=O)[nH]1` [cGMP], in series [4], the “Ratio of cGMP/cAMP hydrolysis” value is given as 30.

`CCCOc1ccccc1-c1nc2nc(NCC)ncc2c(=O)[nH]1` [Example 12, 7-Ethylamino-4-oxo-2-(2-propoxyphenyl)-3,4-dihydropyrimido[4,5-d]pyrimidine]: the “% Inhibition” value in series [3] (dose 18.7 μmol/kg i.v.) was found to be 24%. In addition, the ED50 in series [2] was 0.48 to 3.85 µmol/kg.

Consider `CCCOc1ccccc1-c1nc2nc(N)ncc2c(=O)[nH]1` [Example 7, 7 Amino 4-oxo-2-(2-propoxyphenyl)-3,4-dihydropyrimido[4.5-d]pyrimidine], for which the ED50 in series [2] fell in the range of 0.48 to 3.85 µmol/kg.

On to `CCCCCC(O)C=CC1C2CC(CO2)C1CC=CCCCC(=O)O` (centres unmarked) [Example U46619, 9,11-methaneoepoxy-PGH2, reference compound], for which the “increase from basal airway resistance (steady state of bronchoconstriction)” value in series [2] (U46619 infused i.v. at 2.5 nmol/min) is reported as “approximately 120%”.

On to `CCCOc1ccccc1-c1nc2nc(SC)ncc2c(=O)[nH]1` [Example 1, 7-Methylthio-4-oxo-2-(2-propoxyphenyl)-3,4-dihydropyrimido-[4.5-d]pyrimidin], for which the ED50 in series [2] lay within 0.48 to 3.85 µmol/kg. Moreover, the “increase in hindquarter blood flow” value in the series on hindquarter blood flow came out at 43.7%.

As for `CCCOc1ccccc1-c1nc2nc(NC)ncc2c(=O)[nH]1` [Example 8, 7-Methylamino-4-oxo-2-(2-propoxyphenyl)-3,4-dihydropyrimido[4.5-d]pyrimidine], in series [3] (dose 6.0 μmol/kg i.v.), the “% Inhibition” value is on record as 23%. Moreover, in series [2], the ED50 lay within 0.48 to 3.85 µmol/kg.

Consider `CCCOc1ccccc1-c1nc2nc(NCCO)ncc2c(=O)[nH]1` [Example 13], for which the “% Inhibition” value in series [3] (dose 4.8 μmol/kg i.v.) amounted to 21%. Further, the ED50 in series [2] lay within 0.48 to 3.85 µmol/kg.

Turning to `CCCOc1ccccc1-c1nc2nc(CC)ncc2c(=O)[nH]1` [Example 14, 7-Ethyl-4-oxo-2-(2-propoxyphenyl)-3,4-dihydropyrimido[4,5-d]pyrimidine], the ED50 in series [2] was in the range of 0.48 to 3.85 µmol/kg.

Turning to `CCCOc1ccccc1-c1nc2nc(NCCOC)ncc2c(=O)[nH]1` [Example 22], the ED50 in series [2] was in the range of 0.48 to 3.85 µmol/kg.

Take `CCCOc1ccccc1-c1nc2nc(NC3CC3)ncc2c(=O)[nH]1` [Example 18, 7-Cyclopropylamino-4-oxo-2-(2-propoxyphenyl)-3,4-dihydropyrimido[4,5-d]pyrimidine]: in series [3] (dose 22.6 μmol/kg i.v.), the “% Inhibition” value worked out at 44%. Moreover, the ED50 in series [2] was in the range of 0.48 to 3.85 µmol/kg.
